For series [1], the target named is T1, PRMT5/MEP50-MTA protein complex (Homo sapiens, UniProt O14744).
T1 construct: purchased Viva Biotech
Description: Thermal shift assay: change in melting temperature of the PRMT5/MEP50-MTA protein complex. The note with it: compound 8 µM, PRMT5/MEP50 2 µM, MTA 2 µM; Tm minus DMSO vehicle control. The series is classed as binding. The source says:
Test Example 1: Determination of the ability of the compounds of the present invention to improve the thermal stability (melting temperature) of the PRMT5/MEP50-MTA protein complex.
1. Experimental objective: The objective of this test example is to determine the ability of the compound to improve the thermal stability of the PRMT5/MEP50-MTA protein complex, resulting in an increase in the protein melting temperature. 2. Experimental instruments: Quantitative PCR instrument (Quantstudio6 Flex) was purchased from Life Technologies; pipettes were purchased from Eppendorf or Rainin. 3. Experimental reagents and consumables: PRMT5/MEP50 protein was prepared by Viva Biotech; HEPES was purchased from Thermo Fisher Scientific (Cat. No. 15630080); DTT was purchased from Sigma (Cat. No. 43816-10ml); sodium chloride was purchased from Invitrogen (Cat. No. AM9760G); Protein Thermal Shift™ Dye Kit was purchased from Thermo Fisher Scientific (Cat. No. 4461146); methylthioadenosine (MTA) was purchased from Sigma (Cat. No. D5011). 4. Experimental methods: In this experiment, the thermal shift method was used to measure the change in the melting temperature (Tm) of the PRMT5/MEP50-MTA protein complex before and after compound binding, thereby characterising the ability of the compound to improve the thermal stability of the PRMT5/MEP50-MTA protein complex. A solution containing 50 mM HEPES, 10 mM DTT, 2 µM MTA, SYPRO Orange and 250 mM NaCl was prepared as the experimental buffer. Human PRMT5/MEP50 protein was added to a final concentration of 2 µM, and the mixture was incubated at room temperature for 30 minutes. The above reaction mixture was aliquoted into 8-strip PCR tubes at 19.5 µL per tube. Then 0.5 µL of test compound or DMSO was added to each tube, providing a total reaction volume of 20 µL and a final compound concentration of 8 µM. 2.5% DMSO was set as the vehicle control. After incubation at room temperature for 10 minutes, the PCR tubes were placed in a PCR instrument, and the melt curve function was selected to measure the melting temperature of the PRMT5/MEP50-MTA protein complex in different treatment groups (heated from 25°C to 95°C, 0.03°C/s). 5. Experimental data processing method: The experimental data files from the PCR instrument were imported into the thermal shift software to obtain the melting temperature (Tm) for each treatment group.

The nature of series [2]: Pharmacokinetics in rats (plasma) after oral administration. The note with it: male, SD, rat, 5 mg/kg.
Description: Test Example 4: Determination of the pharmacokinetics of the compounds of the present invention in rats (plasma) after oral administration.
Study objective: SD rats were used as test animals to study the pharmacokinetic behaviour of the following example compounds in rats (plasma) after oral administration at a dose of 5 mg/kg. […] Test scheme 2.1 Test drugs: Vehicle formula: 0.5% CMC-Na (1% Tween 80); the examples of the present invention, prepared in house. 2.2 Test animals: 3 SD rats per group, male, purchased from Shanghai Bikai Keyi Biotechnology Co., Ltd., with animal license number (SCXK (Shanghai) 2018-0006, No.20180006037467). 2.3 Administration: 3 SD rats per group, male, were fasted overnight and then respectively administered PO at a dose of 5 mg/kg and a volume of 10 mL/kg. 2.4 Sample collection: 0.2 mL of blood was collected from the jugular vein of rats before administration and at 0, 0.25, 0.5, 1, 2, 4, 6, 8 and 24 h after administration, and placed in EDTA-K2test tubes, and the test tubes were centrifuged at 6,000 rpm at 4°C for 6 min to separate the plasma, which was stored at -80°C. The animals were fed 4 h after administration. 2.5 Sample treatment • 1) 160 uL of acetonitrile was added to 40 uL of plasma sample for precipitation, and after mixing, the mixture was centrifuged at 3,500 × g for 5-20 minutes. • 2) 100 uL of the treated supernatant solution was taken for LC/MS/MS analysis to determine the concentration of the test compounds. 2.6 Liquid phase analysis • Liquid phase conditions: Shimadzu LC-20AD pump; • Mass spectrometry conditions: AB Sciex API 4000 mass spectrometer; • Chromatographic column: phenomenex Gemiu 5 um C18 50 × 4.6 mm; • Mobile phase: solution A: 0.1% formic acid in water, solution B: methanol; • flow rate: 1.0 mL/min; Elution time: 0-4.0 min, with eluents as follows:
Experimental results and analysis: The main pharmacokinetic parameters were calculated using WinNonlin 8.2.

T1 sequence (O14744 whole entry): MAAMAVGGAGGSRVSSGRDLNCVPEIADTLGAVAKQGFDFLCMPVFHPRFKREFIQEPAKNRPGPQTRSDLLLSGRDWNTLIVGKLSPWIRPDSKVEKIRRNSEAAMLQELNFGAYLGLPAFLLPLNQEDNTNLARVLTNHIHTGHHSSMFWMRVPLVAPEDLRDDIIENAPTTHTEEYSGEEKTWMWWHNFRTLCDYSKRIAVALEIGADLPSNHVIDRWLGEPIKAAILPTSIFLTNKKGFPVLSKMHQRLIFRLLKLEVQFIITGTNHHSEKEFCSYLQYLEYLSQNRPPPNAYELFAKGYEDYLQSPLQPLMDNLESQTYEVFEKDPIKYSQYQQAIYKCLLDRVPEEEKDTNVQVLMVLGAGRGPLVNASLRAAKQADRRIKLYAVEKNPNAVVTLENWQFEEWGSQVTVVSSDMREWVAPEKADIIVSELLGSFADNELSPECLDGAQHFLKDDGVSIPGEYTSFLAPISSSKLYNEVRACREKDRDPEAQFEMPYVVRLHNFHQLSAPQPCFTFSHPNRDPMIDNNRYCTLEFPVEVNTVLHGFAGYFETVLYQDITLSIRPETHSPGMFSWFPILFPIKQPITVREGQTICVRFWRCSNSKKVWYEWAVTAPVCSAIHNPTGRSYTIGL
T1 sequence (Q9BQA1 whole entry partner): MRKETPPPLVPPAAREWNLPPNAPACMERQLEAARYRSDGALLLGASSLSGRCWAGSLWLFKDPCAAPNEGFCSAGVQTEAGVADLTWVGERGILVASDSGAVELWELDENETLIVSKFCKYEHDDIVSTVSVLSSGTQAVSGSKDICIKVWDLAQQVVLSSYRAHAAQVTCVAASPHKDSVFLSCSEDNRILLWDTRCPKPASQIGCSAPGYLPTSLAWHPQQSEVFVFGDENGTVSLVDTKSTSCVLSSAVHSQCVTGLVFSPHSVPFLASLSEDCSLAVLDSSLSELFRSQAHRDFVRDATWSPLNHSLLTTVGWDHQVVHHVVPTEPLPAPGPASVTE

By ΔTm is commonly meant the shift of the melting midpoint relative to a reference. Turning to `CNN(C(=O)c1cc2c3c(c(N)nc2cc1F)COC3)C1COCc2nc(C(F)(F)F)ccc21` (racemic) [Example 306], the shift in melting temperature (ΔTm) at 8 µM in series [1] was 12.7 °C.

Consider `CNN(C(=O)c1cc2c(cn1)nc(N)c1cncn12)C1COc2cc(S(F)(F)(F)(F)F)ccc21` (racemic) [Example 385, 4-Amino-N'-methyl-N-(6-(pentafluoro-6-sulphanyl)-2,3-dihydrobenzofuran-3-yl)imidazo [1,5-a] pyrido [3,4-e] pyrazine-8-carbohydrazide], for which the thermal shift (ΔTm) at 8 µM in series [1] was 11.6 °C. Still for that read-out and setting: for `CNN(C(=O)c1ccc2nc(N)c3cnn(C)c3c2c1)C1COc2cc(S(F)(F)(F)(F)F)ccc21` (racemic) [Example 450, 4-Amino-N',1-dimethyl-N-(6-(pentafluoro-6-sulphanyl)-2,3-dihydrobenzofuran-3-yl)-1H-pyrazolo[4,3-c]quinoline-8-carbohydrazide] the value was 12 °C. Consider `[2H]C([2H])([2H])NN(C(=O)c1cc2c3c(c(N)nc2cc1C)COC3)C1COCc2c1ccn1c(C(F)(F)F)cnc21` (single isomer, unassigned) [Example 357-P1], for which the “ΔTm (°C)” value in series [1] turned out to be 12.45 °C.

Consider `CNN(C(=O)c1cc2c(cn1)nc(N)c1cncn12)C1COc2cc(S(F)(F)(F)(F)F)ccc21` (single isomer, unassigned) [Example 385-P1], for which the ΔTm at 8 µM in series [1] was 14 °C. Turning to `CNN(C(=O)c1cc2c(cn1)nc(N)c1cncn12)C1COc2cc(S(F)(F)(F)(F)F)ccc21` (single isomer, unassigned) [Example 385-P2], the “ΔTm (°C)” value in series [1] stood at 12.31 °C. `CN(C(=O)c1ccc2nc(N)c3cnn(C)c3c2c1)[C@@H]1COCc2c1ccn1cc(Br)nc21` [Example 37-P1, (S)-4-amino-N-(2-bromo-7,10-dihydro-8H-imidazo[1,2-a]pyrano[3,4-c]pyridin-7-yl)-N,1-dimethyl-1H-pyrazolo[4,3-c]quinoline-8-carboxamide]: the thermal shift (ΔTm) at 8 µM in series [1] amounted to 10.5 °C. Regarding `Cc1cc2nc(N)c3cncn3c2cc1C(=O)N(C)C1COCc2c1ccn1cc(C(F)(F)F)nc21` (stereo not shown) [Example 39, 4-Amino-N,7-dimethyl-N-(2-(trifluoromethyl)-7,10-dihydro-8H-imidazo[1,2-a]pyrano[3,4-c]pyridin-7-yl)imidazo[1,5-a]quinoxaline-8-carboxamide], the ΔTm at 8 µM in series [1] came to 11.7 °C. Still for that read-out and setting: for `Cc1cc2nc(N)c3cncn3c2cc1C(=O)N(C)C1COCc2c1ccc1nc(C(F)(F)F)cn21` (stereo not shown) [Example 48, 4-Amino-N,7-dimethyl-N-(8-(trifluoromethyl)-3,4-dihydro-1H-imidazo[1,2-a]pyrano[4,3-e]pyridin-4-yl)imidazo[1,5-a]quinoxaline-8-carboxamide] the value was 11.7 °C; for `CN(C(=O)c1ccc2nc(N)c3cnn(C)c3c2c1)C1COCc2c1ccc1cc(C(F)(F)F)cnc21` (stereo not shown) [Example 68, 4-Amino-N,1-dimethyl-N-(3-(trifluoromethyl)-7,10-dihydro-8H-pyrano[4,3-h]quinolin-7-yl)-1H-pyrazolo[4,3-c]quinoline-8-carboxamide], 10.4 °C.

As for `CN(C(=O)c1ccc2nc(N)c3cnn(C)c3c2c1)C1COCc2c1ccc1nc(C(F)(F)F)cn21` (stereo not shown) [Example 81, 4-Amino-N,1-dimethyl-N-(8-(trifluoromethyl)-3,4-dihydro-1H-imidazo[1,2-a]pyrano[4,3-e]pyridin-4-yl)-1H-pyrazolo[4,3-c]quinoline-8-carboxamide], the thermal shift (ΔTm) at 8 µM in series [1] worked out at 10.4 °C. Turning to `Cc1cc2nc(N)c3cncn3c2cc1C(=O)N(C1CC(=C(F)F)C1)C1COCc2c1ccn1c(C(F)(F)F)cnc21` (stereo not shown) [Example 144, 4-Amino-N-[3-(difluoromethylene)cyclobutyl]-7-methyl-N-[5-(trifluoromethyl)-12-oxa-3,6-diazatricyclo[7.4.0.02,6]trideca-1(9),2,4,7-tetraen-10-yl]imidazo[1,5-a]quinoxaline-8-carboxamide], the ΔTm at 8 µM in series [1] was determined as 10.2 °C. Take `Cc1cc2nc(N)c3cncn3c2cc1C(=O)N(C)C1COCc2c1ccn1c(N=S(C)(C)=O)cnc21` (stereo not shown) [Example 146, 4-Amino-N-(3-((dimethyl(carbonyl)-16-sulphanylidene)amino)-7,10-dihydro-8H-imidazo[1,2-a]pyrano[3,4-c]pyridin-7-yl)-N,7-dimethylimidazo[1,5-a]quinoxaline-8-carboxamide]: in series [1], the ΔTm at 8 µM was found to be 10.2 °C. The same measure, in the same setting: for `CN(C(=O)c1cc2c(cc1F)nc(N)c1cncn12)C1COCc2c1ccn1c(C(F)(F)F)c(C(=O)N3CC(=C(F)F)C3)nc21` (stereo not shown) [Example 234, 4-Amino-N-(2-(3-(difluoromethylene)azetidine-1-carbonyl)-3-(trifluoromethyl)-7,10-dihydro-8H-imidazo[1,2-a]pyrano[3,4-c]pyridin-7-yl)-7-fluoro-N-methylimidazo[1,5-a]quinoxaline-8-carboxamide] the value was 10.9 °C; for `CN(C(=O)c1cc2c(cc1F)nc(N)c1cncn12)C1COCc2c1ccn1c(C(F)=C3CCCCC3)cnc21` (stereo not shown) [Example 240, 4-Amino-N-(3-(cyclohexylidenefluoromethyl)-7,10-dihydro-8H-imidazo[1,2-a]pyrano[3,4-c]pyridin-7-yl)-7-fluoro-N-methylimidazo[1,5-a]quinoxaline-8-carboxamide], 10.8 °C; for `CNN(C(=O)c1cc2c(cc1C)nc(N)c1cncn12)C1COCc2nc(C(F)(F)F)ccc21` (stereo not shown) [Example 278, 4-Amino-N',7-dimethyl-N-(2-(trifluoromethyl)-5,8-dihydro-6H-pyrano[3,4-b]pyridin-5-yl)imidazo[1,5-a]quinoxaline-8-carbohydrazide], 12.7 °C.

Turning to `CNN(C(=O)c1cc2c(cc1C)nc(N)c1cncn12)[C@@H]1COCc2nc(C(F)(F)F)ccc21` [Example 278-P1, (S)-4-amino-N',7-dimethyl-N-(2-(trifluoromethyl)-5,8-dihydro-6H-pyrano[3,4-b]pyridin-5-yl)imidazo[1,5-a]quinoxaline-8-carbohydrazide], in series [1], the shift in melting temperature (ΔTm) at 8 µM was 12.6 °C. On the same count and under the same terms, for `Nc1nc2cc(F)c(C(=O)N(N)C3COCc4nc(C(F)(F)F)ccc43)cc2n2cncc12` (stereo not shown) [Example 280, 4-Amino-7-fluoro-N-(2-(trifluoromethyl)-5,8-dihydro-6H-pyrano[3,4-b]pyridin-5-yl)imidazo[1,5-a]quinoxaline-8-carbohydrazide] the value was 10.9 °C; for `CNN(C(=O)c1cc2c(cc1C)nc(N)c1cncn12)C1COCc2c1ccn1c(C(F)(F)F)cnc21` (stereo not shown) [Example 281, 4-Amino-N',7-dimethyl-N-(3-(trifluoromethyl)-7,10-dihydro-8H-imidazo[1,2-a]pyrano[3,4-c]pyridin-7-yl)imidazo[1,5-a]quinoxaline-8-carbohydrazide], 12.7 °C. Turning to `CNN(C(=O)c1cc2c3c(c(N)nc2cn1)COC3)C1COCc2nc(C(F)(F)F)ccc21` (stereo not shown) [Example 286, 4-Amino-N'-methyl-N-(2-trifluoromethyl-5,8-dihydro-6H-pyrano[3,4-b]pyridin-5-yl)-1,3-dihydrofuro[3,4-c] [1,7]naphthyridine-8-carbohydrazide], the shift in melting temperature (ΔTm) at 8 µM in series [1] is 10.5 °C. The same measure, in the same setting: for `CNN(C(=O)c1cc2c3c(c(N)nc2cn1)COC3)C1COCc2cc(C(F)(F)F)ccc21` (stereo not shown) [Example 298, 4-Amino-N'-methyl-N-(7-(trifluoromethyl)isochroman-4-yl)-1,3-dihydrofuro[3,4-c][1,7]diazanaphthalene-8-carbohydrazide] the value was 11.4 °C; for `[2H]C([2H])([2H])NN(C(=O)c1cc2c3c(c(N)nc2cn1)C(C)OC3)[C@@H]1COCc2nc(C(F)(F)F)ccc21` (stereo partly shown) [Example 322], 10.7 °C; for `[2H]C([2H])([2H])NN(C(=O)c1cc2c3c(c(N)nc2cn1)COC3)C1([2H])COCc2c1ccn1c(C(F)(F)F)cnc21` (stereo not shown) [Example 354, 4-Amino-N'-(methyl-d3)-N-(3-(trifluoromethyl)-7,10-dihydro-8H-imidazo[1,2-a]pyrano[3,4-c]pyridin-7-yl-7-d)-1,3-dihydrofuro[3,4-c][1,7]naphthyridine-8-carbohydrazide], 10.8 °C. What is called AUC(0-inf) is the area under the concentration-time curve extrapolated to infinity. For orientation: Cmax means the peak of the concentration-time curve. What is called MRT inf is the average time that molecules of a dose stay in the body. The term Tmax denotes the time from dosing to the highest level. As usually defined, the half-life is the time in which the quantity being followed falls by half. Consider `Nc1nc2cnc(C(=O)N(N)C3COCc4c3ccn3c(C(F)(F)F)cnc43)cc2c2c1COC2` (stereo not shown) [Example 424, 4-Amino-N-(3-(trifluoromethyl)-7,10-dihydro-8H-imidazo[1,2-a]pyrano[3,4-c]pyridin-7-yl)-1,3-dihydrofuro[3,4-c][1,7]naphthyridine-8-carbohydrazide], for which, in series [2], the total exposure AUC(0-inf) is 2380 ng·h/mL, the Cmax came to 226 ng/mL, the mean residence time MRT inf amounted to 8.9 h and the Tmax turned out to be 2.7 h. Further, in series [2], the half-life was 6.1 h.
